BigSolDB 2.1

Clc1ccccc1C(c1ccccc1)(c1ccccc1)n1ccnc1
solubility (mole fraction)
Conditions	278.15 K	283.15 K	288.15 K	293.15 K	298.15 K	303.15 K	308.15 K	313.15 K	318.15 K	323.15 K
in 1,4-dioxane	–	–	0.0385	0.0441	0.05	0.0568	0.0643	0.0731	0.0813	0.091
in acetonitrile	0.00173	0.00212	0.00264	0.00316	0.00378	0.00453	0.00539	0.00636	0.00741	0.00886
in isopropanol	0.00782	0.00947	0.0114	0.0137	0.0164	0.0195	0.0228	0.0266	0.031	0.036
in n-propanol	0.0125	0.0151	0.0181	0.0215	0.0257	0.0301	0.0353	0.0413	0.0477	0.0554
in water	9.28e-09	1.22e-08	1.56e-08	1.98e-08	2.47e-08	3.11e-08	3.85e-08	4.78e-08	5.9e-08	7.07e-08
